Experimental data as given in ChEMBL document CHEMBL4052800, “Syntheses of cytotoxic novel arctigenin derivatives bearing halogen and alkyl groups on aromatic rings” (Bioorg Med Chem Lett, 2017).

Key:
HL-60 [1] = test: Cytotoxicity against human HL60 cells assessed as reduction in cell viability after 48 hrs by WST-8 assay; type: functional, cell-based; details: HL-60, 48 h
HL-60 [2] = test: Cytotoxicity against human HL60 cells assessed as reduction in cell viability after 48 hrs by WST-8 assay relative to control; type: functional
HeLa = test: Cytotoxicity against human HeLa cells assessed as reduction in cell viability after 48 hrs by WST-8 assay; type: functional, cell-based

| Structure (SMILES) | EC50 (HL-60 [1]) [µM] | inhibition (INH) (HL-60 [2]) [%] | EC50 (HeLa) [µM] |
| --- | --- | --- | --- |
| O=C1OC[C@H](Cc2ccccc2)[C@H]1Cc1cccc(O)c1 | > 100 | 45 |  |
| Cc1cccc(C[C@H]2C(=O)OC[C@@H]2Cc2ccccc2)c1 | 53 |  |  |
| Oc1ccccc1C[C@H]1COC[C@@H]1Cc1ccc(Cl)c(Cl)c1 | 34 |  |  |
| CCCCOc1ccccc1C[C@H]1COC[C@@H]1Cc1ccc(Cl)c(Cl)c1 | 20 |  |  |
| Cc1ccccc1C[C@H]1COC(=O)[C@@H]1Cc1ccc(Cl)c(Cl)c1 | 22 |  |  |
| O=C1OC[C@H](Cc2ccccc2)[C@H]1Cc1ccccc1F | 72 |  |  |
| Cc1ccc(C[C@H]2C(=O)OC[C@@H]2Cc2ccccc2)cc1 | 44 |  |  |
| Oc1cccc(C[C@H]2COC[C@@H]2Cc2ccc(Cl)c(Cl)c2)c1 | 31 |  |  |
| Clc1ccc(C[C@H]2COC[C@@H]2Cc2ccc3c(c2)OCCO3)cc1Cl | 38 |  |  |
| CCCCOc1ccc(C[C@H]2C(=O)OC[C@@H]2Cc2ccccc2)cc1OCCCC | > 100 | 29 |  |
| Cc1ccc(C[C@H]2COC(=O)[C@@H]2Cc2ccc(Cl)c(Cl)c2)cc1C | 16 |  |  |
| COc1ccc(C[C@H]2COC(=O)[C@@H]2Cc2ccc(Cl)c(Cl)c2)cc1OC | 24 |  |  |
| CCCCCCCOc1ccccc1C[C@H]1C(=O)OC[C@@H]1Cc1ccccc1 | 75 |  |  |
| CCCCOc1cc(C[C@H]2C(=O)OC[C@@H]2Cc2ccccc2)ccc1O | 35 |  |  |
| CCCCCCCOc1cccc(C[C@H]2C(=O)OC[C@@H]2Cc2ccccc2)c1 | 81 |  |  |
| COc1ccc(C[C@H]2COC[C@@H]2Cc2ccc(Cl)c(Cl)c2)cc1O | 33 |  |  |
| Cc1ccc(C[C@H]2COC[C@@H]2Cc2ccc(Cl)c(Cl)c2)cc1 | 21 |  |  |
| COc1ccc(C[C@H]2COC(=O)[C@@H]2Cc2ccc(Cl)c(Cl)c2)cc1 | 37 |  |  |
| CCCCOc1ccc(/C=C2\C(=O)OC[C@@H]2Cc2ccccc2)cc1 | 58 |  |  |
| O=C1OC[C@H](Cc2ccccc2)[C@H]1Cc1cccc(F)c1 | 75 |  |  |
| COc1cccc(C[C@H]2C(=O)OC[C@@H]2Cc2ccccc2)c1 | 66 |  |  |
| COc1ccc(C[C@H]2C(=O)OC[C@@H]2Cc2ccccc2)cc1 | 67 |  |  |
| Clc1ccc(C[C@H]2COC[C@@H]2Cc2ccc(Cl)c(Cl)c2)cc1Cl | 16 |  |  |
| CCCCOc1ccc(C[C@H]2C(=O)OC[C@@H]2Cc2ccccc2)cc1 | 23 |  | 27 |
| Cc1ccccc1C[C@H]1COC[C@@H]1Cc1ccc(Cl)c(Cl)c1 | 21 |  |  |

| Structure (SMILES) | EC50 (HL-60 [1]) [µM] | inhibition (INH) (HL-60 [2]) [%] | EC50 (HeLa) [µM] |
| --- | --- | --- | --- |
| Clc1ccc(C[C@H]2COC[C@@H]2Cc2ccc3c(c2)OCO3)cc1Cl | 22 |  |  |
| O=C1OC[C@H](Cc2ccccc2)[C@H]1Cc1cc(Cl)cc(Cl)c1 | 23 |  | 17 |
| COc1ccc(C[C@H]2COC[C@@H]2Cc2ccc(Cl)c(Cl)c2)cc1 | 39 |  |  |
| Cc1ccccc1C[C@H]1C(=O)OC[C@@H]1Cc1ccccc1 | 57 |  |  |
| CCCCOc1ccccc1C[C@H]1C(=O)OC[C@@H]1Cc1ccccc1 | 20 |  |  |
| O=C1OC[C@H](Cc2ccc(F)cc2)[C@H]1Cc1ccc(Cl)c(Cl)c1 | 14 |  | 19 |
| COc1cc(C[C@H]2COC(=O)[C@@H]2Cc2ccc(Cl)c(Cl)c2)ccc1O | 36 |  |  |
| O=C1OC[C@H](Cc2ccccc2)[C@H]1Cc1ccccc1C(F)(F)F | 37 |  |  |
| O=C1OC[C@H](Cc2ccccc2)[C@H]1Cc1ccc(Cl)cc1 | 36 |  |  |
| O=C1OC[C@H](Cc2ccccc2)[C@H]1Cc1ccc2c(c1)OCO2 | 57 |  |  |
| Fc1ccc(C[C@H]2COC[C@@H]2Cc2ccc(Cl)c(Cl)c2)cc1 | 43 |  |  |
| CCCCc1ccc(C[C@H]2COC(=O)[C@@H]2Cc2ccc(Cl)c(Cl)c2)cc1 | 9.4 |  | 27 |
| O=C1OC[C@H](Cc2ccccc2)[C@H]1Cc1ccccc1O | 83 |  |  |
| COc1cccc(C[C@H]2COC(=O)[C@@H]2Cc2ccc(Cl)c(Cl)c2)c1 | 34 |  |  |
| O=C1OC[C@H](Cc2ccccc2)[C@H]1Cc1ccc(F)cc1 | 57 |  |  |
| O=C1OC[C@H](Cc2cccc(O)c2)[C@H]1Cc1ccc(Cl)c(Cl)c1 | 48 |  |  |
| CCCCOc1ccc(C[C@H]2COC[C@@H]2Cc2ccccc2)cc1 | 11 |  |  |
| CCc1ccc(C[C@H]2COC(=O)[C@@H]2Cc2ccc(Cl)c(Cl)c2)cc1 | 16 |  |  |
| Cc1ccc(C[C@H]2COC[C@@H]2Cc2ccc(Cl)c(Cl)c2)cc1C | 36 |  |  |
| C[C@H](Cc1ccccc1)[C@H](C)Cc1ccc(Cl)c(Cl)c1 | 19 |  |  |
| O=C1OC[C@H](Cc2ccccc2)[C@H]1Cc1cccc(OC(F)(F)F)c1 | 34 |  |  |
| O=C1OC[C@H](Cc2ccccc2O)[C@H]1Cc1ccc(Cl)c(Cl)c1 | 33 |  |  |
| Cc1cccc(C[C@H]2COC(=O)[C@@H]2Cc2ccc(Cl)c(Cl)c2)c1 | 22 |  |  |
| O=C1OC[C@H](Cc2ccccc2)[C@H]1Cc1ccc(OC(F)(F)F)cc1 | 27 |  |  |
| CCOc1ccccc1C[C@H]1COC[C@@H]1Cc1ccc(Cl)c(Cl)c1 | 29 |  |  |

| Structure (SMILES) | EC50 (HL-60 [1]) [µM] | inhibition (INH) (HL-60 [2]) [%] | EC50 (HeLa) [µM] |
| --- | --- | --- | --- |
| O=C1OC[C@H](Cc2ccccc2F)[C@H]1Cc1ccc(Cl)c(Cl)c1 | 28 |  |  |
| O=C1OC[C@H](Cc2ccccc2)[C@H]1Cc1ccc(Cl)c(Cl)c1 | 19 |  | 26 |
| Fc1cccc(C[C@H]2COC[C@@H]2Cc2ccc(Cl)c(Cl)c2)c1 | 20 |  |  |
| O=C1OC[C@H](Cc2ccccc2)[C@H]1Cc1ccccc1 | 77 |  |  |
| O=C1OC[C@H](Cc2ccc(Cl)c(Cl)c2)[C@H]1Cc1ccc(Cl)c(Cl)c1 | 20 |  |  |
| O=C1OC[C@H](Cc2ccccc2)[C@H]1Cc1ccccc1Cl | 37 |  |  |
| O=C1OC[C@H](Cc2ccccc2)[C@H]1Cc1ccc(C(F)(F)F)cc1 | 22 |  | 29 |
| CCCCc1ccc(C[C@H]2COC[C@@H]2Cc2ccc(Cl)c(Cl)c2)cc1 | 23 |  |  |
| O=C1OC[C@H](Cc2ccccc2)[C@H]1Cc1ccccc1OC(F)(F)F | 39 |  |  |
| COc1ccc(C[C@H]2C(=O)OC[C@@H]2Cc2ccccc2)cc1OC | > 100 | 38 |  |
| O=C1OC[C@H](Cc2ccc3c(c2)OCO3)[C@H]1Cc1ccc(Cl)c(Cl)c1 | 51 |  |  |
| COc1ccccc1C[C@H]1C(=O)OC[C@@H]1Cc1ccccc1 | 79 |  |  |
| CCCCOc1cccc(C[C@H]2C(=O)OC[C@@H]2Cc2ccccc2)c1 | 26 |  |  |
| CCOc1ccccc1C[C@H]1COC(=O)[C@@H]1Cc1ccc(Cl)c(Cl)c1 | 15 |  | 31 |
| O=C1OC[C@H](Cc2ccccc2)[C@H]1Cc1cccc(C(F)(F)F)c1 | 34 |  |  |
| COc1cc(C[C@H]2COC[C@@H]2Cc2ccc(Cl)c(Cl)c2)ccc1O | 21 |  |  |
| O=C1OC[C@H](Cc2ccc(O)cc2)[C@H]1Cc1ccc(Cl)c(Cl)c1 | 37 |  |  |
| O=C1OC[C@H](Cc2ccccc2)[C@H]1Cc1ccc(O)cc1 | 88 |  |  |
| COc1cccc(C[C@H]2COC[C@@H]2Cc2ccc(Cl)c(Cl)c2)c1 | 73 |  |  |
| COc1cc(C[C@@H]2COC(=O)[C@H]2Cc2ccc(O)c(OC)c2)ccc1O | > 100 |  | > 100 |
| O=C1OC[C@H](Cc2ccc3c(c2)OCCO3)[C@H]1Cc1ccc(Cl)c(Cl)c1 | 28 |  |  |
| CCCCCCCOc1ccc(C[C@H]2C(=O)OC[C@@H]2Cc2ccccc2)cc1 | > 100 | 17 |  |
| O=C1OC[C@H](Cc2ccccc2)[C@H]1Cc1ccc(Cl)cc1Cl | 19 |  | 23 |
| COc1cc(C[C@H]2C(=O)OC[C@@H]2Cc2ccccc2)ccc1O | 93 |  |  |
| Oc1ccc(C[C@H]2COC[C@@H]2Cc2ccc(Cl)c(Cl)c2)cc1 | 31 |  |  |

| Structure (SMILES) | EC50 (HL-60 [1]) [µM] | inhibition (INH) (HL-60 [2]) [%] | EC50 (HeLa) [µM] |
| --- | --- | --- | --- |
| COc1ccc(C[C@H]2COC(=O)[C@@H]2Cc2ccc(Cl)c(Cl)c2)cc1O | 32 |  |  |
| Clc1ccc(C[C@H]2COC[C@@H]2Cc2ccccc2)cc1Cl | 19 |  |  |
| O=C1OC[C@H](Cc2ccccc2)[C@H]1Cc1cccc(Cl)c1 | 36 |  |  |
| COc1cc(C[C@H]2C(=O)OC[C@@H]2Cc2ccccc2)cc(OC)c1OC | > 100 | 44 |  |
| Cc1ccc(C[C@H]2COC(=O)[C@@H]2Cc2ccc(Cl)c(Cl)c2)cc1 | 19 |  |  |
| COc1ccccc1C[C@H]1COC[C@@H]1Cc1ccc(Cl)c(Cl)c1 | 55 |  |  |
| Fc1ccc(C[C@H]2COC[C@@H]2Cc2ccc(Cl)c(Cl)c2)cc1F | 18 |  |  |
| COc1ccc(C[C@H]2COC[C@@H]2Cc2ccc(Cl)c(Cl)c2)cc1OC | 16 |  |  |
| COc1ccccc1C[C@H]1COC(=O)[C@@H]1Cc1ccc(Cl)c(Cl)c1 | 14 |  | 24 |
| Fc1ccccc1C[C@H]1COC[C@@H]1Cc1ccc(Cl)c(Cl)c1 | 51 |  |  |
| COCOc1ccc(C[C@H]2C(=O)OC[C@@H]2Cc2ccccc2)cc1 | 71 |  |  |
| O=C1OC[C@H](Cc2ccccc2)[C@H]1Cc1ccc(F)c(F)c1 | 50 |  |  |
| Cc1cccc(C[C@H]2COC[C@@H]2Cc2ccc(Cl)c(Cl)c2)c1 | 28 |  |  |
| Cc1ccc(C[C@H]2C(=O)OC[C@@H]2Cc2ccccc2)cc1C | 35 |  |  |
| O=C1OC[C@H](Cc2ccc(F)c(F)c2)[C@H]1Cc1ccc(Cl)c(Cl)c1 | 25 |  |  |
| COCOc1ccccc1C[C@H]1C(=O)OC[C@@H]1Cc1ccccc1 | 76 |  |  |
| CCCCOc1ccc(/C=C2/C(=O)OC[C@@H]2Cc2ccccc2)cc1 | > 100 | 36 |  |
| COCOc1cccc(C[C@H]2C(=O)OC[C@@H]2Cc2ccccc2)c1 | 80 |  |  |
| CCc1ccc(C[C@H]2COC[C@@H]2Cc2ccc(Cl)c(Cl)c2)cc1 | 26 |  |  |
| O=C1OC[C@H](Cc2cccc(F)c2)[C@H]1Cc1ccc(Cl)c(Cl)c1 | 14 |  | 20 |
| CCCCOc1ccccc1C[C@H]1COC(=O)[C@@H]1Cc1ccc(Cl)c(Cl)c1 | 10 |  | > 100 |
| COc1cc(C[C@@H](C)[C@H](C)Cc2ccc(O)c(OC)c2)ccc1O [(-)-DIHYDROGUAIARETICACID] | 26 |  | 22 |
| COc1cc(C[C@H]2C(=O)OC[C@@H]2Cc2ccc(OC)c(OC)c2)ccc1O [ARCTIGENIN] | 12 |  | > 100 |
| COc1cc(C[C@H]2COC(=O)[C@@H]2Cc2ccc(O)c(OC)c2)ccc1O [MATAIRESINOL] | 74 |  | > 100 |
